Laboratory results reported in US4889854A, “Tricyclic pyridone derivatives” (Hoffman-La Roche Inc., priority 1987, dated 1989).

How the values were obtained:
[1] = tested on: spasmodic seizures caused by pentetrazole; experiment: antipentetrazole test (oral administration, mice); assay type: in vivo; conditions: Mus musculus, 30 minutes before 120 mg/kg pentetrazole i.p., dosage which protects 50% of the animals, Probit method
Protocol: As mentioned earlier, the compounds of formula A have valuable pharmacological properties. In particular, they display pronounced muscle relaxant, sedative-hypnotic, anticonvulsive and/or anxiolytic properties and have only a low toxicity.
(§1) In this animal experiment, the compound under investigation is administered orally to mice and 30 minutes later they are administered intraperitoneally 120 mg/kg of pentetrazole, which causes emprosthotonus and tonic stretchings of the fore and/or hind limbs in unprotected animals, 1-4 minutes after the injection. Ten (10) experimental animals are used per dosage of test substance. After counting the protected experimental animals, the ED50 is determined according to the known Probit method. The ED50 is that dosage which protects 50% of the experimental animals from the spasmodic seizures caused by pentetrazole. The results which have been obtained with representative members of the class of compound defined by formula A in the experiment described previously are compiled in the following Table. Moreover, the Table contains data concerning the acute toxicity (LD50) of some of these compounds in mg/kg in the case of single oral administration to mice.

[2] = acute toxicity, single oral administration to mice; conditions: mouse, in vivo, single oral administration (p.o.)
Protocol: as §1

O=C(c1cc(-c2ccccc2)c(=O)n2c1-c1cc(Cl)ccc1CN2)N1CCOCC1 [Compound A, 4-[(10-chloro-6,7-dihydro-4-oxo-3-phenyl-4H-pyrido[2,1-a]phthalazin-1-yl)carbonyl]morpholine]
ED50 [1]: 3.1 mg/kg
LD50 [2]: > 3000 mg/kg

COC1CN(C(=O)c2cc(-c3ccccc3)c(=O)n3c2-c2cc(Cl)ccc2CN3)C1 [C, 1-[(10-chloro-6,7-dihydro-4-oxo-3-phenyl-4H-pyrido[2,1-a]phthalazin-1-yl)carbonyl]-3-methoxyazetidine]
ED50 [1]: 0.56 mg/kg

COC[C@H]1CCCN1C(=O)c1cc(-c2ccccc2)c(=O)n2c1-c1cc(Cl)ccc1CN2 [Compound B, (R)-1-[(10-chloro-6,7-dihydro-4-oxo-3-phenyl-4H-pyrido[2,1-a]phthalazin-1-yl)carbonyl]-2-(methoxymethyl)pyrrolidine]
ED50 [1]: 0.44 mg/kg
LD50 [2]: > 3000 mg/kg

CN(C)C(=O)c1cc(-c2ccccc2)c(=O)n2c1-c1cc(Cl)ccc1CN2 [D, 10-chloro-6,7-dihydro-N,N-dimethyl-4-oxo-3-phenyl-4H-pyrido[2,1-a]-phthalazine-1-carboxamide]
ED50 [1]: 0.23 mg/kg

CN(C)C(=O)c1cc(-c2ccccc2)c(=O)n2c1-c1sccc1CN2 [H, 4,5-dihydro-N,N-dimethyl-7-oxo-8-phenyl-7H-pyrido[1,2-b]thieno[2,3-d]pyridazine-10-carboxamide]
ED50 [1]: 0.29 mg/kg
LD50 [2]: > 5000 mg/kg

COC1CN(C(=O)c2cc(-c3ccccc3)c(=O)n3c2-c2sccc2CN3C)C1 [G, 1-[(4,5-dihydro-5-methyl-7-oxo-8-phenyl-7H-pyrido[1,2-b]thieno[2,3-d]pyridazin-10-yl)carbonyl]-3-methoxyazetidine]
ED50 [1]: 8.2 mg/kg
LD50 [2]: > 5000 mg/kg

CO[C@@H]1CCN(C(=O)c2cc(-c3ccccc3)c(=O)n3c2-c2sccc2CN3)C1 [E, (R)-1-[(4,5-dihydro-7-oxo-8-phenyl-7H-pyrido[1,2-b]thieno[2,3-d]pyridazin-10-yl)carbonyl]-3-methoxypyrrolidine]
ED50 [1]: 1.4 mg/kg

COC1CN(C(=O)c2cc(-c3ccccc3)c(=O)n3c2-c2sccc2C(C)N3)C1 (racemic) [F, rac-1-[(4,5-dihydro-4-methyl-7-oxo-8-phenyl-7H-pyrido[1,2-b]thieno[2,3-d]pyridazin-10-yl)carbonyl]-3-methoxyazetidine]
ED50 [1]: 3.3 mg/kg
LD50 [2]: 3000 mg/kg
